The IC50 is the point on the concentration scale where inhibition reaches its midpoint.

Here are results for 8 compounds from publication PMC7181131, “N-Pyrazinoyl Substituted Amino Acids as Potential Antimycobacterial Agents—the Synthesis and Biological Evaluation of Enantiomers” (Molecules, 2020).

Converted amounts (≈) assume the structure as drawn. Read-outs that look alike come from different tables or passages of the source. Where only a bound is given, the exact number is not on record here.

Data set [1] deals with Klebsiella pneumoniae CCM 4415 (ATCC 10031). The data set can be described thus: Antibacterial microdilution broth method, KP. Conditions: read after 24 h of incubation. (Dilution methods test growth across graded concentrations, often in twofold steps.)
Data set [2] relates to Mtb H37Ra ITM-M006710 (ATCC 9431). Description: Microplate Alamar Blue Assay (MABA) microdilution, Mtb H37Ra. The format is cell-based, Mycobacterium tuberculosis. To be noted: Mycobacterium tuberculosis.
In a further data set the test system is HepG2 cell line. The data set can be described thus: HepG2 cytotoxicity, CellTiter 96 (MTS) assay. The format is cell-based, human. Conditions: Homo sapiens, read-out: HepG2 IC50.
For data set [3], the system named is Aspergillus flavus CCM 8363. Description: Antifungal microdilution broth method, AFla. The class given is cell-based. To be noted: CCM8363, read after 48 h (filamentous fungi), read-out: MIC AFla.
Data set [4] deals with Candida krusei CCM 8271 (ATCC 6258). Description: Antifungal microdilution broth method, CK. The format is cell-based. Conditions: Pichia kudriavzevii, 24 h, read-out: MIC CK.
Data set [5] relates to Lichtheimia corymbifera CCM 8077. The data set can be described thus: Antifungal microdilution broth method, LC. Conditions: CCM8077, 48 h, read-out: MIC LC. The format is cell-based.
Data set [6] has as its system Candida albicans CCM 8320 (ATCC 24433). Description: Antifungal microdilution broth method, CA. The format is cell-based. Conditions: 24 h, read-out: MIC CA.
Data set [7] relates to Aspergillus fumigatus ATCC 204305. The data set can be described thus: Antifungal microdilution broth method, AF. The format is cell-based. To be noted: ATCC204305, 48 h, read-out: MIC AF.
Data set [8] relates to Mycobacterium aurum DSM 43999 (ATCC 23366). Description: Microplate Alamar Blue Assay (MABA) microdilution, M. aurum. The class given is cell-based. To be noted: Mycolicibacterium aurum. For orientation: Resazurin is reduced to fluorescent resorufin, in cell work by metabolically active cells.
The test system of data set [9] is M. smegmatis DSM 43465 (ATCC 607). The data set can be described thus: Microplate Alamar Blue Assay (MABA) microdilution, M. smegmatis. The class given is cell-based, Mycobacterium smegmatis. Conditions: Mycolicibacterium smegmatis.
Data set [10] has as its system Staphylococcus epidermidis CCM 4418 (ATCC 12228). Description: Antibacterial microdilution broth method, SE. The format is cell-based. Conditions: 24 h, read-out: MIC SE.
Data set [11] deals with Candida parapsilosis CCM 8260 (ATCC 22019). Description: Antifungal microdilution broth method, CP. Conditions: Lodderomyces parapsilosis, 24 h, read-out: MIC CP. The class given is cell-based.
Data set [12] deals with Candida tropicalis CCM 8264 (ATCC 750). Description: Antifungal microdilution broth method, CT. Conditions: 24 h, read-out: MIC CT. The format is cell-based.
Data set [13] relates to Trichophyton interdigitale CCM 8377 (ATCC 9533). The data set can be described thus: Antifungal microdilution broth method, TI. The class given is cell-based. To be noted: 48 h, read-out: MIC TI.
The mark [14] stands for this setting: pH 6.6, read-out: MIC Mtb H37Ra.
Setting [15] is: pH 6, calculated from µg/mL, read-out: MIC Mtb H37Ra.
Where [16] appears, read: pH 6, read-out: MIC M. aurum µg/mL.
The mark [17] stands for this setting: pH 6, read-out: MIC M. smegmatis µg/mL.
Setting [18] is: pH 6.6, read-out: MIC M. smegmatis.

With `COC(=O)[C@H](CCSC)NC(=O)c1cnccn1` [PC-L-Met-Me, methyl (pyrazine-2-carbonyl)-L-methioninate], the “MIC KP” value in data set [1] is above 500 µM. Besides, the MIC in data set [2] (pH 6) was below 3.91 µg/mL; in [2] (pH 6, read-out: Mtb pH 6 MIC) it was 15 µM; in data set [2] (pH 6, read-out: MIC Mtb H37Ra) it was below 3.91 µg/mL; in data set [2] (setting [14]), at least 500 µg/mL; in [2] (setting [15]), below 14.5 µM; in data set [3], above 500 µM. Also, the MIC in data set [4] was above 500 µM; in [5] it was above 500 µM; in data set [6], above 500 µM; in data set [7], above 500 µM; in data set [8] (setting [16]) it was 62.5 µg/mL (≈ 232 µM); in data set [8] (pH 6.6, read-out: MIC M. aurum) it was at least 500 µg/mL. Moreover, the MIC in [9] (setting [17]) is at least 500 µg/mL; in data set [9] (setting [18]), at least 500 µg/mL; in data set [10], above 500 µM; in data set [11], above 500 µM; in data set [12], above 500 µM; in data set [13], 500 µM (≈ 135 µg/mL). In addition, the IC50 in the data set with HepG2 cell line (HepG2, 24 h) was above 100 µM.

For `C[C@H](NC(=O)c1cnccn1)C(=O)O` [PC-L-Ala, (pyrazine-2-carbonyl)-L-alanine], the “MIC KP” value in [1] is recorded as above 500 µM. Besides, the MIC in data set [2] (pH 6) is at least 250 µg/mL; in data set [2] (pH 6, read-out: MIC Mtb H37Ra) it was at least 250 µg/mL; in data set [2] (setting [14]), at least 250 µg/mL; in data set [2] (pH 6, Table 4, read-out: Mtb pH 6 MIC), at least 1280 µM; in [2] (setting [15]), at least 1280 µM; in data set [3] it was above 500 µM. Further, the MIC in data set [4] was above 500 µM; in [5], above 500 µM; in [6], above 500 µM; in data set [7], above 500 µM; in data set [8] (setting [16]) it was 62.5 µg/mL (≈ 320 µM); in data set [8] (pH 6.6, read-out: MIC M. aurum) it was at least 250 µg/mL. Further, the MIC in data set [9] (setting [17]) was 125 µg/mL (≈ 640 µM); in data set [9] (setting [18]) it was at least 250 µg/mL; in [10], above 500 µM; in data set [11], above 500 µM; in data set [12], above 500 µM; in data set [13], above 500 µM. Moreover, the IC50 with HepG2 cell line (HepG2, 24 h incubation, CellTiter 96) was above 250 µM.

With `COC(=O)C(NC(=O)c1cnccn1)c1ccccc1` [PC-D/L-Pgl-Me, methyl 2-phenyL-2-(pyrazine-2-carboxamido)acetate], the “MIC KP” value in [1] is above 500 µM. For the same compound, the MIC is below 1.95 µg/mL in [2] (pH 6); below 7 µM in data set [2] (pH 6, read-out: Mtb pH 6 MIC); below 1.95 µg/mL in data set [2] (pH 6, read-out: MIC Mtb H37Ra); at least 500 µg/mL in data set [2] (setting [14]); below 7.3 µM in [2] (setting [15]); above 500 µM in data set [3]. The MIC was above 500 µM in data set [4]; above 500 µM in [5]; above 500 µM in [6]; above 500 µM in data set [7]; 31.2 µg/mL (≈ 115 µM) in data set [8] (setting [16]); at least 500 µg/mL in [8] (pH 6.6, read-out: MIC M. aurum). The MIC was at least 250 µg/mL in data set [9] (setting [17]); at least 500 µg/mL in data set [9] (setting [18]); above 500 µM in [10]; above 500 µM in data set [11]; 500 µM (≈ 136 µg/mL) in data set [12]; above 500 µM in [13]. In addition, the IC50 in the data set on HepG2 cell line (HepG2, 24 h) is above 1000 µM.

Regarding `COC(=O)[C@H](COCc1ccccc1)NC(=O)c1cnccn1` [PC-L-OBn-Ser-Me, methyl O-benzyl-N-(pyrazine-2-carbonyl)-L-serinate], the MIC in data set [2] (pH 6) is 7.81 µg/mL; in data set [2] (pH 6, read-out: Mtb pH 6 MIC), 25 µM; in data set [2] (pH 6, read-out: MIC Mtb H37Ra), 7.81 µg/mL; in data set [2] (setting [14]) it was 250 µg/mL; in data set [2] (setting [15]) it was 24.8 µM; in [3], above 250 µM. Further, the MIC was above 250 µM in data set [4]; above 250 µM in data set [5]; above 250 µM in data set [6]; above 250 µM in data set [7]; 62.5 µg/mL (≈ 198 µM) in data set [8] (setting [16]); at least 500 µg/mL in data set [8] (pH 6.6, read-out: MIC M. aurum). Also, the MIC is at least 500 µg/mL in data set [9] (setting [17]); at least 500 µg/mL in data set [9] (setting [18]); above 250 µM in data set [10]; above 250 µM in [11]; 125 µM (≈ 39.4 µg/mL) in [12]; above 250 µM in data set [13]. Also, the IC50 with HepG2 cell line (HepG2, 24 h) was found to be 742 µM.

With `COC(=O)[C@H](CO)NC(=O)c1cnccn1` [PC-L-Ser-Me, methyl (pyrazine-2-carbonyl)-L-serinate], the “MIC KP” value in data set [1] is recorded as above 500 µM. In addition, the MIC in [2] (pH 6) is at least 500 µg/mL; in data set [2] (pH 6, read-out: MIC Mtb H37Ra), at least 500 µg/mL; in data set [2] (setting [14]), at least 500 µg/mL; in [2] (setting [15]), at least 2220 µM; in data set [3], above 500 µM; in [4] it was above 500 µM. Also, the MIC is above 500 µM in data set [5]; above 500 µM in data set [6]; above 500 µM in [7]; at least 500 µg/mL in data set [8] (setting [16]); at least 500 µg/mL in data set [8] (pH 6.6, read-out: MIC M. aurum); at least 500 µg/mL in data set [9] (setting [17]). Besides, the MIC was at least 500 µg/mL in data set [9] (setting [18]); above 500 µM in [10]; above 500 µM in data set [11]; above 500 µM in data set [12]; above 500 µM in [13].

As for `CCOC(=O)[C@@H](Cc1c[nH]c2ccccc12)NC(=O)c1cnccn1` [PC-D-Trp-Et, ethyl (pyrazine-2-carbonyl)-D-tryptophanate], the “MIC KP” value in [1] is recorded as above 500 µM. The MIC in data set [2] (pH 6) is 62.5 µg/mL; in data set [2] (pH 6, read-out: MIC Mtb H37Ra) it was 62.5 µg/mL; in [2] (setting [14]), 125 µg/mL; in [2] (setting [15]), 185 µM; in [3], above 500 µM; in [4], above 500 µM. Besides, the MIC is above 500 µM in [5]; above 500 µM in data set [6]; above 500 µM in [7]; 62.5 µg/mL (≈ 185 µM) in data set [8] (setting [16]); 250 µg/mL (≈ 739 µM) in [8] (pH 6.6, read-out: MIC M. aurum); 250 µg/mL (≈ 739 µM) in data set [9] (setting [17]). In addition, the MIC in data set [9] (setting [18]) was 250 µg/mL (≈ 739 µM); in data set [10] it was above 500 µM; in data set [11], above 500 µM; in [12] it was above 500 µM; in [13], above 500 µM.

For the compound `COC(=O)CC[C@@H](NC(=O)c1cnccn1)C(=O)OC` [PC-D-Glu-diMe, dimethyl (pyrazine-2-carbonyl)-D-glutamate], in data set [1], the “MIC KP” value is recorded as above 500 µM. In addition, the MIC is at least 500 µg/mL in data set [2] (pH 6); at least 500 µg/mL in data set [2] (pH 6, read-out: MIC Mtb H37Ra); at least 500 µg/mL in data set [2] (setting [14]); at least 1780 µM in [2] (setting [15]); above 500 µM in data set [3]; above 500 µM in data set [4]. In addition, the MIC is above 500 µM in data set [5]; above 500 µM in data set [6]; above 500 µM in data set [7]; at least 500 µg/mL in [8] (setting [16]); at least 500 µg/mL in data set [8] (pH 6.6, read-out: MIC M. aurum); at least 500 µg/mL in data set [9] (setting [17]). Moreover, the MIC in [9] (setting [18]) was at least 500 µg/mL; in data set [10], above 500 µM; in data set [11], above 500 µM; in data set [12], above 500 µM; in data set [13], above 500 µM.

For the compound `CCOC(=O)C[C@H](NC(=O)c1cnccn1)C(=O)OCC` [PC-L-Asp-diEt, diethyl (pyrazine-2-carbonyl)-L-aspartate], the “MIC KP” value in data set [1] is above 500 µM. The MIC in [2] (pH 6) was at least 125 µg/mL; in data set [2] (pH 6, read-out: MIC Mtb H37Ra), at least 125 µg/mL; in data set [2] (setting [14]), at least 500 µg/mL; in data set [2] (setting [15]) it was at least 423 µM; in [3], above 500 µM; in [4], above 500 µM. Also, the MIC in data set [5] is above 500 µM; in data set [6], above 500 µM; in data set [7], above 500 µM; in [8] (setting [16]), at least 125 µg/mL; in data set [8] (pH 6.6, read-out: MIC M. aurum), at least 500 µg/mL; in [9] (setting [17]), at least 125 µg/mL. Besides, the MIC in [9] (setting [18]) is at least 500 µg/mL; in data set [10], 500 µM (≈ 148 µg/mL); in data set [11], above 500 µM; in data set [12] it was above 500 µM; in [13], above 500 µM.
